Assay results from patent publication US8648035B2 (priority 2007, dated 2014).
pIC50: −log10 of the molar value.

Legend:
[1] = system: E. coli cell-free transcription-translation system; assay type: biochemical; details: for pIC50: read-out: IC50 for inhibition of protein synthesis (firefly luciferase)
[2] = system: E. coli cell-free transcription-translation system; assay type: biochemical; details: bacterial system

Row | Substance | inhibition of synthesis of GFP [1] | pIC50 [1] | combination effect with antibiotic on inhibition of protein synthesis ([2]; combination with streptomycin or other related antibiotics) | increase of potency in inhibiting protein synthesis ([2]; in the presence of 3 μM streptomycin) | stimulation of protein synthesis (luciferase) [1]
1 | AGAAMSH [BLS15] | shown to inhibit synthesis of GFP | 4.82 | synergistic action | 25 fold | –
2 | AMSAPIP [BLS18] | – | 3.86 | – | – | –
3 | SILPYPY [BLS26] | – | – | – | – | 20%
4 | SYPDLHL [BLS25] | – | – | – | – | 20%
